Reference: publication PMC7319089, “Multi-Component Comparative Pharmacokinetics in Rats After Oral Administration of Fructus aurantii Extract, Naringin, Neohesperidin, and Naringin-Neohesperidin” (Frontiers in Pharmacology, 2020)
Where two headings read alike, the source gives them in different places.

Experiments:
[1] = Pharmacokinetics in SD rats after oral administration of FA extract, NA, NHE or NA-NHE (UPLC-MS/MS of plasma, DAS 3.1); type: in vivo, Sprague-Dawley (SD) rats; settings: for MRT last: read-out: MRT(0-t); for MRT inf: read-out: MRT(0-∞); for Vd/F: read-out: Vz/F; for Cmax: plasma after β-glucuronidase/sulfatase hydrolysis; for AUC(0-t): read-out: AUC(0-t)
Description: The 20 μl of β-glucuronidase and 15 μl of sulfatase were added into 50 μl of plasma sample. After vortexed for 30 s, the mixture was incubated at 37°C for 2 h in a water bath, then placed in ice water for 5 min to terminate the reaction ([Xu et al., 2019]). IS solution (20 µl, 5 μg/ml) and acetonitrile (1.0 ml) were added into the mixture and vortexed for 2 min. […] Rats were randomly divided into the following four groups (6 rats in each group): naringin (NA), neohesperidin (NHE), naringin-neohesperidin (NA-NHE), and FA extract group. The oral administration doses were selected according to the literatures ([Tong et al., 2012]; [Yang et al., 2012]; [Committee of National Pharmacopoeia of RP China, 2015]; [Wang et al., 2018]; [Zhang et al., 2018]; [Chen et al., 2019]), the contents of the five components in FA, and the preliminary experiments. The specific doses were as follows: […] The rats had free access to water during the experiment. The blood samples were then immediately centrifuged at 4,000 rpm for 10 min. The plasma was frozen and stored at −80°C until analysis. The plasma concentration of the studied compounds was determined according to the daily calibration curve.

[2] = Stability of the analytes in rat plasma (QC samples); type: in vitro ADME; settings: n = 6; for Long-term Stability RE: -20 °C for one month; for Short-term Stability RE: room temperature 24 h; for Free–thaw Stability RE: three cycles -20 °C/room temperature
Description: The QC samples were assayed under several different conditions to evaluate the stability of the compounds in rat plasma. For the short-term stability, fresh plasma samples were kept at room temperature for 24 h before the sample preparation. After keeping the samples at room temperature for 24 h, post-preparation stability was tested. Freeze-thaw cycles (-20 °C/room temperature) stability were […] treated at -20°C for freezing-room temperature melting three times (repeated freezing and thawing three times). In each freeze-thaw cycle, the samples were frozen and stored at -20 °C for 24 h, and subsequently thawed at room. To evaluate the long-term stability of QC plasma samples, following storage at -20 °C for one month. The stability data were acceptable when the bias was within ±15% of the actual value ([Yuan et al., 2017]).

[3] = Sprague-Dawley, rat, plasma, male SD rats, oral FA extract 10.8 g/kg of the original medicinal material, statistical moment parameters, n = 6
[4] = Sprague-Dawley, rat, male SD rats, oral FA extract 10.8 g/kg of the original medicinal material, statistical moment parameters, n = 6
[5] = male SD rats, oral FA extract 10.8 g/kg of the original medicinal material, two-compartment model parameters, n = 6
[6] = male, Sprague-Dawley, rat, plasma, po, 10.8 g/kg, male SD rats, oral FA extract 10.8 g/kg of the original medicinal material, statistical moment parameters, n = 6
[7] = male, Sprague-Dawley, rat, plasma, po, 10.8 g/kg, male SD rats, oral FA extract 10.8 g/kg of the original medicinal material, statistical moment parameters, n = 6, read-out: CLz/F (converted)
[8] = male, Sprague-Dawley, rat, plasma, po, 10.8 g/kg, male SD rats, oral FA extract 10.8 g/kg of the original medicinal material, statistical moment parameters, n = 6, read-out: Tmax
[9] = male, Sprague-Dawley, rat, plasma, po, 10.8 g/kg, male SD rats, oral FA extract 10.8 g/kg of the original medicinal material, statistical moment parameters, n = 6, read-out: t1/2z (converted)
[10] = male, Sprague-Dawley, rat, plasma, po, 10.8 g/kg, male SD rats, oral FA extract 10.8 g/kg of the original medicinal material, two-compartment model parameters, n = 6
[11] = male, Sprague-Dawley, rat, plasma, po, 10.8 g/kg, male SD rats, oral FA extract 10.8 g/kg of the original medicinal material, two-compartment model parameters, n = 6, read-out: CL/F (converted)
[12] = male, Sprague-Dawley, rat, plasma, po, 10.8 g/kg, male SD rats, oral FA extract 10.8 g/kg of the original medicinal material, two-compartment model parameters, n = 6, read-out: t1/2β (converted)
[13] = high QC concentration (3880 / 2946 / 2470 / 836 / 422.4 ng/mL)
[14] = low QC concentration (3.88 / 2.946 / 2.47 / 0.836 / 0.4224 ng/mL)
[15] = middle QC concentration (77.6 / 58.92 / 49.4 / 16.72 / 8.44 ng/mL)
[16] = male SD rats, oral FA extract 10.8 g/kg of the original medicinal material, statistical moment parameters, n = 6

SMILES	MRT last [1, 3] [h]	MRT inf [1, 3] [h]	Vd/F [1, 3] [L/kg]	Cmax [1, 4] [ng/mL]	Ka [1, 5] [h⁻¹]	V1/F [1, 5] [L/kg]	t1/2α [1, 5] [h]	AUC(0-inf) [1, 6] [ng·h/mL]	AUC(0-t) [1, 6] [ng·h/mL]	CL/F [1, 7] [mL/min/kg]	Tmax [1, 8] [h]	half-life [1, 9] [h]	AUC(0-inf) [1, 10] [ng·h/mL]	AUC(0-t) [1, 10] [ng·h/mL]	CL/F [1, 11] [mL/min/kg]	half-life [1, 12] [h]	Long-term Stability RE [2, 13] [%]	Long-term Stability RE [2, 14] [%]	Long-term Stability RE [2, 15] [%]	Short-term Stability RE [2, 13] [%]	other results
O=C1C[C@@H](c2ccc(O)cc2)Oc2cc(O)cc(O)c21 [Naringenin, naringenin]	9.71 ± 0.56	9.75 ± 0.56	2.06 ± 0.29	2450 ± 226	1.94 ± 0.37	0.82 ± 0.06	2.63 ± 0.39	19700 ± 2630	19600 ± 2620	9.33	9.33 ± 1.03	2.56 ± 0.17	20900 ± 3010	20700 ± 3010	13.8	2.65 ± 0.18	-9.76	-0.84	12.09	-13.49	Shape of the plasma concentration-time profile ([1]; rats, oral administration, naringin and neohesperidin determined as naringenin and hesperetin): double peaks; Short-term Stability RE [2, 14]: -3.02%; Short-term Stability RE [2, 15]: 14.81%; Free–thaw Stability RE [2, 13]: -10.94%; Free–thaw Stability RE [2, 14]: -4.36%; Free–thaw Stability RE [2, 15]: 8.14%
COc1ccc2ccc(=O)oc2c1CC(O)C(C)(C)O (centres unmarked) [Meranzin hydrate, meranzin hydrate]	5.17 ± 0.34	6.57 ± 0.95	9.36 ± 3.56	3360 ± 91	2.05 ± 0.46	4.30 ± 1.14	6.61 ± 0.86	11600 ± 2760	11100 ± 2820	16.2	~1	> 6.5	12300 ± 2590	12100 ± 2760	7.5	6.91 ± 1.05	6.85	7.62	3.19	7.43	Short-term Stability RE [2, 14]: 4.71%; Short-term Stability RE [2, 15]: 1.55%; Free–thaw Stability RE [2, 13]: 7.63%; Free–thaw Stability RE [2, 14]: 5.77%; Free–thaw Stability RE [2, 15]: 0.71%
COc1ccc(-c2cc(=O)c3c(OC)c(OC)c(OC)c(OC)c3o2)cc1OC [Nobiletin, nobiletin]	4.23 ± 0.5	4.8 ± 0.99	151 ± 47	130 ± 4.78	0.69 ± 0.25	6.80 ± 1.24	4.40 ± 0.34	480 ± 117	473 ± 119	393	1.17 ± 0.26	2.1 ± 0.37	473 ± 63.1	472 ± 62.6	134	4.49 ± 0.57	-3.36	5.83	6.71	0.80	AUC(0-t) ([1]; Sprague-Dawley, rat, plasma, po, 10.8 g/kg, rats, oral FA extract, unit inferred): 473 ± 119 ng·h/mL; Short-term Stability RE [2, 14]: 7.01%; Short-term Stability RE [2, 15]: 7.89%; Free–thaw Stability RE [2, 13]: -1.72%; Free–thaw Stability RE [2, 14]: 2.21%; Free–thaw Stability RE [2, 15]: 10.46%
COc1ccc2ccc(=O)oc2c1CC1OC1(C)C (centres unmarked) [Meranzin, meranzin]	4.82 ± 0.76	6.39 ± 2.22	477 ± 70.2	27.7 ± 2.85	2.18 ± 0.97	5.91 ± 1.12	6.39 ± 0.11	80.4 ± 15.5	76.9 ± 14.7	2310	~1	> 6.5	87.8 ± 22.9	84.4 ± 22.5	1200	6.48 ± 0.38	-7.37	-10.98	-13.52	-2.81	Tmax [1, 16]: 0.92 ± 0.13 h; t1/2z [1, 16]: 6.52 ± 0.63 h; Short-term Stability RE [2, 14]: -6.25%; Short-term Stability RE [2, 15]: -8.40%; Free–thaw Stability RE [2, 13]: -6.01%; Free–thaw Stability RE [2, 14]: -9.71%; Free–thaw Stability RE [2, 15]: 11.07%
